Experimental findings from paper PMC9371699, “Cell-penetrating peptides enhance peptide vaccine accumulation and persistence in lymph nodes to drive immunogenicity” (Proceedings of the National Academy of Sciences of the …, 2022) are described below.

Ends that are not written are not given here.

Data set [1] can be described thus: T cell activation-based serum stability assay. It counts as in vitro ADME. The note with it: 30 µM peptide in RPMI-1640 + 10% fresh mouse serum, 24 h, 37 °C, vs fresh peptide; titrated on splenocytes, CD69 read-out by flow cytometry. As for the experimental part: Peptides are also highly susceptible to proteolytic cleavage, resulting in a short half-life in vivo ([65], [66]). […] To test if the association of antigen-CPPs with serum components impacts peptide antigen stability, we used an in vitro antigen-presentation assay to functionally determine if T cells could still be activated by antigen-CPPs after incubation with serum proteases ([22]). Free gp100 peptide or gp100-CPP peptides were incubated for 24 h in 10% mouse serum, then added to splenocytes at titrated doses for 1 h to allow antigen uptake and processing, followed by culture with pmel-1 (gp100–specific) T cells for 24 h and assessment of pmel-1 CD69 expression (Fig. 6A and SI Appendix, Fig. S13). From these cocultures, we determined the peptide antigen concentration required for 50% of maximal CD69 up-regulation by the pmel-1 T cells (EC50) (Fig. 6B) and the change in EC50 for peptides preincubated with serum (ΔEC50) (Fig. 6C). […] In contrast, the ΔEC50 for gp100-CPPs ranged from 0.76 to 3.4 (Fig. 6C).
Following prime and boost of mice with gp100 peptides, CD8^+ T cell responses were confirmed on day −1. […] CD69^+/CD8^+ T cell responses were measured by flow cytometry.
Figure S13. […] Shown are plots of pmel activation, measured via CD69 upregulation, against the concentration of the fresh or serum -treated construct. […]

In the next data set the target is proteinase K (Parengyodontium album, UniProt P06873). Briefly: Proteolysis LC-MS assay. The class given is in vitro ADME. The note with it: 5 µM peptide in PBS, 0.5 ng proteinase K, 37 °C, 2 hours, time points 0, 30, 60, 120 min, LC-MS (Q-TOF), no other serum components. The text has this: To gain more direct evidence of altered peptide stability, we used quadrupole time-of-flight liquid chromatography/MS (LC-QTOF-MS), to directly detect proteolytic degradation of pAntp and MPG conjugates in serum. […] We hypothesized that enhanced stability of the conjugates could reflect an intrinsic protective peptidase-/protease-blocking effect by the CPP or be an indirect effect mediated by binding of the conjugate to other serum proteins that sterically interfere with protease attack on the peptide. To distinguish these possibilities, we performed a similar experiment assessing proteolytic stability in the presence of purified proteinase K—a promiscuous protease that cleaves peptide bonds following hydrophobic amino acids—in the absence of other serum components.
proteinase K, sequence (P06873 106-384, species assumed): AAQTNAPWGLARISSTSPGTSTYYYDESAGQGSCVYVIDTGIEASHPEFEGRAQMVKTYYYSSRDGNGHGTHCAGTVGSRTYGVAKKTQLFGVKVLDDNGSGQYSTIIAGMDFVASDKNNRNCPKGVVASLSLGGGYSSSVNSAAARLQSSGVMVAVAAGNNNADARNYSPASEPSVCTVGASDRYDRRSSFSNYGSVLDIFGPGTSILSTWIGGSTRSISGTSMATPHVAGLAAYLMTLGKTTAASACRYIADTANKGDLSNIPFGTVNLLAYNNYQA
C18 column (2 μm particle size, 15 cm × 50 μm ID; Thermo Fisher Scientific). Mobile phase A was 0.1% formic acid in ultrapure water (v/v) and mobile phase B was 80% acetonitrile, 0.1% formic acid in ultrapure water (v/v). The nano-LC method was as follows: 1% B ramping in a linear manner to 41% B in A over 120 minutes, flow rate: 300 nL/min. Data were processed using PEAKS proteomics software.
Serum stability LC-MS assay. […]
Proteolysis LC-MS Assay. […] They were then resuspended 50:50 water:acetonitrile with 0.1% trifluoroacetic acid and reaction analyzed on an Agilent 6550 iFunnel Q -TOF MS. […]

For the substance AVGALEGPRNQDWLGVPRQL-NH2 [gp100], the “increase in EC50 (CD69 up-regulation) after incubation in serum” value in data set [1] is about 16 fold. On proteinase K, the “proteolytic stability with purified proteinase K” value is recorded as “rapid degradation”.
